Assays:
CYP2C9 = CYP2C9 (Homo sapiens, UniProt P11712); assay: Luminescent P450-Glo recombinant human CYP2C9 inhibition assay
Source text: (§1) The inhibitory effects of B. monnieri standardized extract and the constituents bacoside A, bacoside A3, bacopaside II, bacopaside X, bacopasaponin C and bacopaside I on human cytochrome P450 enzyme were examined using an in vitro luminescent assay. The P450-Glo™ substrates are converted by CYP enzymes to a luciferin product that reacts with a Luciferin Detection Reagent to produce light. The amount of light produced is directly proportional to the CYP enzyme activity. The net signals from untreated (added with buffer or solvent) CYP reactions represent total CYP activity (without any inhibition = 100%). […] The test compounds that inhibit CYP enzymes caused a reduction in CYP activity and therefore generated less light/signal.
(§2) The assay was carried out using P450-Glo™ Screening System (Cat.# V9770, V9790, V9880, V9890, V9910) from Promega (Madison, WI, USA). The system includes a membrane preparation containing recombinant human cytochrome P450 (CYP) enzyme, negative control membranes, a luminogenic substrate appropriate for the CYP enzyme, an NADPH regeneration system (containing nicotinamide adenine dinucleotide phosphate (NADP^+), glucose-6-phosphate, magnesium chloride (MgCl2) and glucose-6-phosphate dehydrogenase functioning to initiate and sustain the CYP450 reaction by maintaining a non-limiting NADPH system), reaction buffer, Luciferin Detection Reagent and Luciferin-Free Water. The membranes were prepared from baculovirus-infected insect cells and contained recombinant human CYP enzyme and P450 reductase (and cytochrome b5 for CYP2C9, 2C19 and 3A4). The negative control membranes were devoid of CYP activity. The dried powder of B. monnieri standardized methanolic extract containing 50% bacosides (batch No.: C92352/H) was purchased from Sami Labs Ltd. (Karnataka, India). Bacoside A, bacoside A3, bacopaside II, bacopaside X, bacopasaponin C and bacopaside I were purchased from Chromadex Inc. (Irvine, CA, USA).
(§3) The enzyme assay was performed in 96-well white bottom flat plates (Nunc, Roskilde, Denmark). The concentration of B. monnieri extract was 0.01–1000 µg/mL, and the positive controls and compounds (bacoside A, bacoside A3, bacopaside II, bacopaside X, bacopasaponin C and bacopaside I) were 0.01–100 µM. The concentration of the extracts, compounds and positive controls were prepared at 4× the original concentration. All extracts and compounds were dissolved in dimethyl sulfoxide (DMSO). The organic solvent was kept below 0.25% (v/v) in the incubation mixture. First, 12.5 μL of the 4× test compounds or positive controls (appropriate for each enzyme) were added to the “treated” wells. For the “untreated” (the values from these wells represent total CYP activity) and “minus-P450 control” wells (the values from these wells represent the CYP-independent background luminescence of the assay), 12.5 μL of vehicle (1% DMSO) was added. Then, 12.5 μL of the 4× control reaction mixture (containing membrane preparations devoid of CYP enzymes, the appropriate luminogenic substrate, and potassium phosphate buffer) were added to the minus-P450 control wells, and 12.5 μL of the 4× reaction mixture (containing human CYP membrane preparations, the appropriate luminogenic substrate, and potassium phosphate buffer) were added to all other wells. The plate was pre-incubated at room temperature for 10 min, and then 2× NADPH regeneration system was added to initiate the reaction. After incubation at room temperature for 30 min (45 min for CYP2D6), 50 μL of the reconstituted Luciferin Detection Reagent was added to stop the reaction and generate the luminescent signal. Before reading, the plate was incubated at room temperature for 20 min to stabilize the luminescent signal. The luminescence in all of the samples was measured using an Infinite F200 plate reader (Tecan, Männedorf, Switzerland).

CYP2C19 = CYP2C19 (Homo sapiens, UniProt P33261); assay: Luminescent P450-Glo recombinant human CYP2C19 inhibition assay
CYP2C19, sequence (P33261 whole entry): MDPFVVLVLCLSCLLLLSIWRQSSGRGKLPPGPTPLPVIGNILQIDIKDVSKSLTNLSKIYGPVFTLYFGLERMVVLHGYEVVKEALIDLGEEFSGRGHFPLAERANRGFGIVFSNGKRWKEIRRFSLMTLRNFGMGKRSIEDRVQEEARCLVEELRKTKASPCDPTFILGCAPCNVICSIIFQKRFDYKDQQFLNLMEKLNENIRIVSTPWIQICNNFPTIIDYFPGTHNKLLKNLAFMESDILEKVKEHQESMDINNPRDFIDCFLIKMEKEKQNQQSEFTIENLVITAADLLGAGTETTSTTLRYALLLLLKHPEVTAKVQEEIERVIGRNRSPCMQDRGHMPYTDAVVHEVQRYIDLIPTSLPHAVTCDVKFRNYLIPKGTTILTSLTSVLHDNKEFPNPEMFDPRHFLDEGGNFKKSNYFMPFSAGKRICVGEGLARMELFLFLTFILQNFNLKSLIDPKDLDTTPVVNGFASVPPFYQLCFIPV
Source text: as §1, §2, §3

CYP3A4 = CYP3A4 (Homo sapiens, UniProt P08684); assay: Luminescent P450-Glo recombinant human CYP3A4 inhibition assay
CYP3A4, sequence (P08684 2-503): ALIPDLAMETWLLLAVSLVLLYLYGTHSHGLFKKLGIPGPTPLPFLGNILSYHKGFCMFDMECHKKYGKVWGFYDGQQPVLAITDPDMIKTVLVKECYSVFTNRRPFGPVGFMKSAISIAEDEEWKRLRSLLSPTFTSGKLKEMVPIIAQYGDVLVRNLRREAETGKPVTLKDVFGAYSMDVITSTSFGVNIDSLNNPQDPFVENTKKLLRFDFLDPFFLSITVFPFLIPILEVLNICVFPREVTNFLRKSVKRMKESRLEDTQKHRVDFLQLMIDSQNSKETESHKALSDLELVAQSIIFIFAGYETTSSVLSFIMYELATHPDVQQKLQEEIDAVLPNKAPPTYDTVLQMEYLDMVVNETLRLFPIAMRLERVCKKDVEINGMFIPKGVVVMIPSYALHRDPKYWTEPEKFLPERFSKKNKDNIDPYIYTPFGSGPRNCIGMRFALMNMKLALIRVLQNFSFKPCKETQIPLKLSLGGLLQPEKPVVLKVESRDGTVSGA
Source text: as §1, §2, §3

CYP2D6 = CYP2D6 (Homo sapiens, UniProt P10635); assay: Luminescent P450-Glo recombinant human CYP2D6 inhibition assay
CYP2D6, sequence (P10635 whole entry): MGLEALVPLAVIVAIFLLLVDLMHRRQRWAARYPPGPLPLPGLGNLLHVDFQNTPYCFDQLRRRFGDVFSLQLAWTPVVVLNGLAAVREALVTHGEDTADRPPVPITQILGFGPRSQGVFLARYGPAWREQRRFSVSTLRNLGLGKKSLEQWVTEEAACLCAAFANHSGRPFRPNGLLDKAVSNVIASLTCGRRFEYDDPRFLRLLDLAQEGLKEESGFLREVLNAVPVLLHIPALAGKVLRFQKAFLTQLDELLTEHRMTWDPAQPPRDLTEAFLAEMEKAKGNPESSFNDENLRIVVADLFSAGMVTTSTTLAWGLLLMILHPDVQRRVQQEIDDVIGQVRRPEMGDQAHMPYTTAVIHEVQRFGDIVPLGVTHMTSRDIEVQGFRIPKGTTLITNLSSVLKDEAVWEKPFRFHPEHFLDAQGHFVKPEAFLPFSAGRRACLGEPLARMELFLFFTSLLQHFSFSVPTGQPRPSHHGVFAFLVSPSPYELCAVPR
Source text: as §1, §2, §3

CYP1A2 = molecular target: T1, CYP1A2 (Homo sapiens, UniProt P05177); assay: Luminescent P450-Glo recombinant human CYP1A2 inhibition assay
T1 sequence (P05177 2-516 limits assumed): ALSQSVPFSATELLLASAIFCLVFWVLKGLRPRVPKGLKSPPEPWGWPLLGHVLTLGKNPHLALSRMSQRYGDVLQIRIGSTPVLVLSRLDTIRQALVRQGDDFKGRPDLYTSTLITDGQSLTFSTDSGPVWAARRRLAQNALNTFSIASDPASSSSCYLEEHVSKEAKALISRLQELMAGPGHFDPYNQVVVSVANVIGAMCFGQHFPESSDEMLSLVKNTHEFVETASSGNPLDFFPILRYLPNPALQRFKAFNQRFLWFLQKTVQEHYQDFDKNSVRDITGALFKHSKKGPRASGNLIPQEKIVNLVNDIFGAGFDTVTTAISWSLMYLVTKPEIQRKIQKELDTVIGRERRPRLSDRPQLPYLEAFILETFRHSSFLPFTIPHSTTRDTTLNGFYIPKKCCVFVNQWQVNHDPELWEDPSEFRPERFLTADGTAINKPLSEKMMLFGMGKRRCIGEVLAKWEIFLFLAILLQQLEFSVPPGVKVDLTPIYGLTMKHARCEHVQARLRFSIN
Source text: as §1, §2, §3

CYP2C9, sequence (P11712 whole entry): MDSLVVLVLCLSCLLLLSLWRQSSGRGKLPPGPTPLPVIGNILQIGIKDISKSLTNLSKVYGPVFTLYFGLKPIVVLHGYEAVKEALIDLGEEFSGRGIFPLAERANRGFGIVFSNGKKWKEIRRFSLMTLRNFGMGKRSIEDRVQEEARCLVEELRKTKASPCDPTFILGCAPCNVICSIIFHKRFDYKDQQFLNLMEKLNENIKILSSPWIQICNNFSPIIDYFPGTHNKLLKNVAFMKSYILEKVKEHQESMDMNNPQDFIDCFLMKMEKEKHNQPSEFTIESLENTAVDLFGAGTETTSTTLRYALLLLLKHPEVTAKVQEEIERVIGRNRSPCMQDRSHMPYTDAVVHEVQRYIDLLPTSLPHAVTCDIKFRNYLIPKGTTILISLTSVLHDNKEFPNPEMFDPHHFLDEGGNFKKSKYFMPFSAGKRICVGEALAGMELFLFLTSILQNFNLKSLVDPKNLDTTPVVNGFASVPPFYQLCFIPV

Row | Structure (SMILES) | IC50 (CYP2C9) [µM] | Inhibition of CYP2C9 in words (CYP2C9; concentrations up to 100 µM) | IC50 (CYP2C19) [µM] | Inhibition of CYP2C19 in words (CYP2C19; concentrations up to 100 µM) | IC50 (CYP3A4) [µM] | Inhibition of CYP3A4 in words (CYP3A4; concentrations up to 100 µM) | IC50 (CYP2D6) [µM] | Inhibition of CYP2D6 in words (CYP2D6; concentrations up to 100 µM) | IC50 (CYP1A2) [µM] | Inhibition of CYP1A2 in words (CYP1A2; concentrations up to 100 µM)
1 | CC(C)=C[C@H]1C[C@](C)(O)[C@@H]2[C@H]3CC[C@@H]4[C@@]5(C)CC[C@H](O[C@@H]6O[C@H](CO)[C@@H](O)[C@H](O[C@@H]7O[C@H](CO)[C@@H](O)[C@H](O)[C@H]7O)[C@H]6O[C@@H]6O[C@@H](CO)[C@H](O)[C@H]6O)C(C)(C)[C@@H]5CC[C@@]4(C)[C@@]34CO[C@@]2(C4)O1 [bacoside A3] | > 100 | negligible inhibition | > 100 | negligible inhibition | > 100 | negligible inhibition | > 100 | negligible inhibition | > 100 | negligible inhibition
2 | CC(C)=CC1COC23CC4(CO2)C(CCC2C5(C)CCC(OC6OCC(O)C(OC7OC(COS(=O)(=O)O)C(O)C(O)C7O)C6OC6OC(CO)C(O)C6O)C(C)(C)C5CCC24C)C3C1(C)O (stereo not drawn) [bacopaside I] | > 100 |  | > 100 |  | > 100 |  | > 100 |  | > 100 | 
3 | CC(C)=CC1COC23CC4(CO2)C(CCC2C5(C)CCC(OC6OC(CO)C(O)C(OC7OC(CO)C(O)C(O)C7O)C6OC6OC(CO)C(O)C6O)C(C)(C)C5CCC24C)C3C1(C)O (stereo not drawn) [bacopaside II] | > 100 |  | > 100 |  | > 100 |  | > 100 |  | > 100 | 
4 | CC(C)=C[C@H]1C[C@](C)(O)[C@@H]2[C@H]3CC[C@@H]4[C@@]5(C)CC[C@H](O[C@@H]6OC[C@H](O)[C@H](O[C@@H]7O[C@H](CO)[C@@H](O)[C@H](O)[C@H]7O)[C@H]6O[C@@H]6O[C@@H](CO)[C@H](O)[C@H]6O)C(C)(C)[C@@H]5CC[C@@]4(C)[C@@]34CO[C@@]2(C4)O1 [bacopaside X] | > 100 |  | > 100 |  | > 100 |  | > 100 |  | > 100 | 
5 | CC(C)=C[C@@H]1CO[C@]23C[C@]4(CO2)[C@H](CC[C@@H]2[C@@]5(C)CC[C@H](O[C@@H]6OC[C@H](O)[C@H](O[C@@H]7O[C@H](CO)[C@@H](O)[C@H](O)[C@H]7O)[C@H]6O[C@@H]6O[C@@H](CO)[C@H](O)[C@H]6O)C(C)(C)[C@@H]5CC[C@]24C)[C@H]3[C@@]1(C)O [bacopasaponin C] | > 100 |  | > 100 |  | > 100 |  | > 100 |  | > 100 | 

From publication PMC6271976, “Inhibition of Human Cytochrome P450 Enzymes by Bacopa monnieri Standardized Extract and Constituents” (Molecules, 2014)
